This passage reports Kd results from ChEMBL document CHEMBL1147774, “Synthesis of N-benzylated-2-aminoquinolines as ligands for the Tec SH3 domain” (Bioorg Med Chem Lett, 2006).

Usually Kd stands for the equilibrium constant for the complex coming apart. A lower Kd goes with tighter binding.

This test deals with T1, Tyrosine-protein kinase Tec (Homo sapiens, UniProt P42680).
T1 sequence (P42680 whole entry): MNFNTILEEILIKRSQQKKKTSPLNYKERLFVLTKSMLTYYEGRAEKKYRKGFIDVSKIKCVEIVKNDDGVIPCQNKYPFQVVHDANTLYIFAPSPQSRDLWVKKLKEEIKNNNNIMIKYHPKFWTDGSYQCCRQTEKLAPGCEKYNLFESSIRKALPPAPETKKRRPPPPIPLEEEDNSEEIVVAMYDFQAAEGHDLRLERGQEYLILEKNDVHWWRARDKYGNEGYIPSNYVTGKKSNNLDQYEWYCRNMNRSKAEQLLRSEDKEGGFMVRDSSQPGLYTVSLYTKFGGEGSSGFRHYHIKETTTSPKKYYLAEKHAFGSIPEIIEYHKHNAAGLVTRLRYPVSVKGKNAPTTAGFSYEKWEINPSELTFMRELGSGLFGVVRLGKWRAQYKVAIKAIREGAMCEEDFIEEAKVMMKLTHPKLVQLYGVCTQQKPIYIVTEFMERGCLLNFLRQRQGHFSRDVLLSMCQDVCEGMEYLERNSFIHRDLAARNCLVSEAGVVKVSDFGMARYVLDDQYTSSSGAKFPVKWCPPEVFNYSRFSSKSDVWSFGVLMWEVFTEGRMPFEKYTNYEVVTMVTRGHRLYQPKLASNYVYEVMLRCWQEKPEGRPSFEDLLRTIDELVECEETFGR
Briefly: Binding affinity to Tec SH3 domain.
`c1c[nH]c(CNc2ccc3ccccc3n2)c1`: binding was put at a Kd of 285 µM. The compound `Fc1cccc(CNc2ccc3ccccc3n2)c1` yielded a Kd of 177 µM. Compound `c1ccc(CNc2ccc3ccccc3n2)cc1` came in with a Kd of 193 µM. As for `Oc1ccc(CNc2ccc3ccccc3n2)cc1`, the figure is 292 µM; as for `Fc1ccccc1CNc1ccc2ccccc2n1`, 208 µM; as for `Oc1cccc(CNc2ccc3ccccc3n2)c1`, 234 µM.
